Assay results published in patent US20220364989A1, “METHOD FOR MEASURING PHOTOTOXICITY OR PHOTOALLERGY AND REAGENT FOR USE THEREIN” (FUJIFILM Corporation, priority 2018, published 2022).
Where a name gives a salt, the structure may show the parent alone. Read-outs that look alike come from different tables or passages of the source.

Columns and labels:
[1] = cited from earlier work
[2] = cited from earlier work; remark: listed apart in the source
[3] = NAC depletion under and without ultraviolet irradiation, HPLC with fluorescence detection (284 nm excitation, 333 nm fluorescence); conditions: single compound
[4] = NAL depletion under and without ultraviolet irradiation, HPLC with fluorescence detection (284 nm excitation, 333 nm fluorescence); conditions: single compound
[5] = Average score of NAC and NAL depletion and phototoxicity or photoallergy determination, fluorescence detection; conditions: under light irradiation, single compound
[6] = NAC depletion under and without ultraviolet irradiation, HPLC with UV detection (281 nm); conditions: for NAC Depletion (%) without light irradiation: 25° C. 24 hours light-shielded; for NAC Depletion (%) without light irradiation / NAC Depletion (%) under light irradiation: test substance solution 1 mmol/L; for NAC Depletion (%) under light irradiation: 2,000 μW/cm^2 for 1 hour then 25° C. 23 hours
[7] = NAL depletion under and without ultraviolet irradiation, HPLC with UV detection (281 nm); conditions: for NAL Depletion (%) without light irradiation: 25° C. 24 hours light-shielded; for NAL Depletion (%) without light irradiation / NAL Depletion (%) under light irradiation: test substance solution 1 mmol/L; for NAL Depletion (%) under light irradiation: 2,000 μW/cm^2 for 1 hour then 25° C. 23 hours

COc1ccc2ccc(=O)oc2c1 [7-Methoxy coumarin]
In vivo photoallergy ([1]; literature classification): Positive

CN(C)CCCN1c2ccccc2Sc2ccc(Cl)cc21 [No. 1, Chlorpromazine HCl]
In vivo phototoxicity ([2]; literature classification): Positive
In vivo photoallergy ([1]; literature classification): Positive

Cc1ccc2oc(=O)ccc2c1 [No. 2, 6-Methylcoumarin]
In vivo phototoxicity ([2]; literature classification): Positive
In vivo photoallergy ([1]; literature classification): Positive

O=C(c1ccccc1)c1ccccc1 [No. 4, Benzophenone]
In vivo photoallergy ([1]; in vivo): Positive

Oc1c(Cl)cc(Cl)cc1Sc1cc(Cl)cc(Cl)c1O [No. 5, Bithionol]
In vivo phototoxicity ([2]; literature classification): Positive
In vivo photoallergy ([1]; literature classification): Positive

CCn1cc(C(=O)O)c(=O)c2cc(F)c(N3CCNCC3)nc21 [No. 6, Enoxacin]
In vivo phototoxicity ([2]; literature classification): Positive
In vivo photoallergy ([1]; literature classification): Positive

CN1C(C(=O)Nc2ccccn2)=C(O)c2ccccc2S1(=O)=O [No. 8, Piroxicam]
In vivo phototoxicity ([2]; literature classification): Positive
In vivo photoallergy ([1]; literature classification): Positive

O=C(Nc1ccc(Br)cc1)c1cc(Br)cc(Br)c1O [No. 10, Tribromsalan]
In vivo phototoxicity ([2]; in vivo): Positive
In vivo photoallergy ([1]; in vivo): Positive

Nc1ccc(N)cc1 [No. 11, p-Phenylenediamine]
In vivo photoallergy ([1]; literature classification): Positive

O=C([O-])Cc1ccccc1Nc1c(Cl)cccc1Cl.[Na+] [No. 13, Diclofenac Na, reference compound]
In vivo photoallergy ([1]; literature classification): Positive
NAC Depletion (%) ([3]; under light irradiation): 100.0%
NAL Depletion (%) ([4]; under light irradiation): 0.0%

CC(CN1c2ccccc2Sc2ccccc21)N(C)C (stereo not shown) [No. 14, Promethazine HCl]
In vivo phototoxicity ([2]; literature classification): Positive
In vivo photoallergy ([1]; literature classification): Positive

C=C[C@H]1CN2CC[C@H]1C[C@H]2[C@H](O)c1ccnc2ccc(OC)cc12.Cl.O.O [No. 15, Quinine HCl (2H2O), reference compound]
NAC Depletion (%) ([3]; under light irradiation): 99.8%
NAL Depletion (%) ([4]; under light irradiation): 0.7%

COc1c(C(C)(C)C)cc([N+](=O)[O-])c(C)c1[N+](=O)[O-] [No. 17, Musk ambrette]
In vivo phototoxicity ([2]; literature classification): Negative
In vivo photoallergy ([1]; literature classification): Positive

O=C(Nc1ccc(Cl)cc1)Nc1ccc(Cl)c(Cl)c1 [No. 20, Triclocarban]
In vivo phototoxicity ([2]; literature classification): Negative
In vivo photoallergy ([1]; literature classification): Positive

Oc1ccc(Cl)cc1Sc1cc(Cl)ccc1O [No. 22, Fenticlor]
In vivo photoallergy ([1]; literature classification): Positive

NS(=O)(=O)c1cc2c(cc1Cl)NCNS2(=O)=O [No. 24, Hydrochlorothiazide]
In vivo photoallergy ([1]; literature classification): Positive

NNC(=O)c1ccncc1 [No. 25, Isoniazid]
In vivo photoallergy ([1]; literature classification): Positive

[Na+].[O-]n1ccccc1=S [No. 26, Omadine (Na salt)]
In vivo photoallergy ([1]; in vivo): Positive

Nc1ccc(S(N)(=O)=O)cc1 [No. 27, Sulfanilamide]
In vivo photoallergy ([1]; literature classification): Positive

CCOc1ccc2c(C)cc(=O)oc2c1 [No. 29, 4-Methyl-7-ethoxycoumarin]
In vivo photoallergy ([1]; literature classification): Positive

COc1c2ccoc2cc2oc(=O)ccc12 [No. 31, 5-Methoxypsoralen]
In vivo phototoxicity ([2]; literature classification): Positive
In vivo photoallergy ([1]; literature classification): Negative

CNc1ccccc1C(=O)OC [No. 32, Methyl-N-methylanthranilate]
In vivo phototoxicity ([2]; literature classification): Positive
In vivo photoallergy ([1]; literature classification): Negative

CC(=O)c1c(C)c([N+](=O)[O-])c(C(C)(C)C)c([N+](=O)[O-])c1C [No. 33, Musk ketone]
In vivo phototoxicity ([2]; literature classification): Positive
In vivo photoallergy ([1]; literature classification): Negative

c1ccc2nc3ccccc3cc2c1 [No. 34, Acridine]
In vivo phototoxicity ([2]; literature classification): Positive
In vivo photoallergy ([1]; literature classification): Negative

c1ccc2cc3ccccc3cc2c1 [No. 35, Anthracene]
In vivo phototoxicity ([2]; literature classification): Positive
In vivo photoallergy ([1]; literature classification): Negative

CN(C)[C@@H]1C(=O)C(C(N)=O)=C(O)[C@@]2(O)C(=O)C3=C(O)c4c(O)cccc4[C@@](C)(O)[C@H]3C[C@@H]12 [No. 36, Tetracycline, reference compound]
In vivo photoallergy ([1]; literature classification): Negative
Average score (%) [5]: 64.3%
NAC Depletion (%) ([3]; under light irradiation): 100.0%
NAL Depletion (%) ([4]; under light irradiation): 28.6%

CC(C)OC(=O)C(C)(C)Oc1ccc(C(=O)c2ccc(Cl)cc2)cc1 [No. 38, Fenofibrate]
In vivo phototoxicity ([2]; literature classification): Positive

Cc1ccc(C=C2C(=O)C3(C)CCC2C3(C)C)cc1 (stereo not shown) [No. 39, 4′-Methylbenzylidene camphor]
In vivo phototoxicity ([2]; in vivo): Negative
In vivo photoallergy ([1]; in vivo): Negative
Average score (%) [5]: 2.0%

CC(=O)Oc1ccccc1C(=O)O [No. 40, Aspirin]
In vivo phototoxicity ([2]; literature classification): Negative
In vivo photoallergy ([1]; literature classification): Negative

CCOC(=O)c1ccc(N)cc1 [No. 41, Benzocaine]
In vivo phototoxicity ([2]; literature classification): Negative
In vivo photoallergy ([1]; literature classification): Negative

COC(=O)c1ccccc1O [No. 43, Methyl salicylate]
In vivo phototoxicity ([2]; literature classification): Negative
In vivo photoallergy ([1]; literature classification): Negative

O=C1NC(=O)C(c2ccccc2)(c2ccccc2)N1 [No. 45, Phenytoin]
In vivo phototoxicity ([2]; literature classification): Negative
In vivo phototoxicity ([2]; reported in References 1 to 3): Negative
In vivo photoallergy ([1]; literature classification): Negative
In vivo photoallergy ([1]; reported in References 1 and 2): Negative

CC(C)O [No. 47, 2-Propanol]
In vivo phototoxicity ([2]; in vivo): Negative
In vivo photoallergy ([1]; in vivo): Negative
Average score (%) [5]: 0.2%

CCCCCCCCCCCCCCCCO [No. 49, Cetyl alcohol]
In vivo phototoxicity ([2]; literature classification): Negative
In vivo photoallergy ([1]; literature classification): Negative

OCC(O)CO [No. 51, Glycerine]
In vivo phototoxicity ([2]; literature classification): Negative

CCCCCCCCCCCCCC(=O)OC(C)C [No. 52, Isopropyl myristate]
In vivo phototoxicity ([2]; literature classification): Negative
In vivo photoallergy ([1]; literature classification): Negative

CCCCCCCCCCCC(=O)O [No. 53, Lauric acid]
In vivo phototoxicity ([2]; literature classification): Negative
In vivo photoallergy ([1]; literature classification): Negative

CCCCCCCCCCCC(=O)[O-].[Na+] [No. 55, Sodium laurate]
In vivo photoallergy ([1]; literature classification): Negative

COc1cc(O)c(C(=O)c2ccccc2)cc1S(=O)(=O)O [No. 57, Sulisobenzone]
In vivo phototoxicity ([2]; literature classification): Negative
In vivo photoallergy ([1]; literature classification): Negative

CC(O)C(=O)O (stereo not shown) [No. 59, Lactic acid]
In vivo photoallergy ([1]; literature classification): Negative

Cc1ncc(CO)c(CO)c1O.Cl [compound 9, Pyridoxine HCl]
In vivo phototoxicity ([2]; in vivo): Positive
In vivo photoallergy ([1]; in vivo): Positive

Nc1ccc(N)cc1 [compound 11, p-Phenylenediamine]
In vivo phototoxicity ([2]; in vivo): Positive
In vivo photoallergy ([1]; reported in References 1 and 2): Positive

O=C([O-])Cc1ccccc1Nc1c(Cl)cccc1Cl.[Na+] [compound 13]
In vivo photoallergy ([1]; reported in References 1 and 2): Positive
Difference in depletion (under light irradiation - without light irradiation) NAC (%) [6]: 99.4%
NAC Depletion (%) without light irradiation [6]: 0.6%
NAC Depletion (%) under light irradiation [6]: 100.0%
NAL Depletion (%) without light irradiation [7]: 0.0%
NAL Depletion (%) under light irradiation [7]: −4.1%
Difference in depletion (under light irradiation - without light irradiation) NAC (%) [3]: 100.0%
NAC Depletion (%) ([3]; without light irradiation): 0.0%
Difference in depletion (under light irradiation - without light irradiation) NAL (%) [4]: 0.0%
NAL Depletion (%) ([4]; without light irradiation): 0.0%

C=CC1CN2CCC1CC2C(O)c1ccnc2ccc(OC)cc12.Cl.O.O (stereo not shown) [compound 15]
Difference in depletion (under light irradiation - without light irradiation) NAC (%) [6]: 98.9%
NAC Depletion (%) without light irradiation [6]: 1.1%
NAC Depletion (%) under light irradiation [6]: 100.0%
Difference in depletion (under light irradiation - without light irradiation) NAL (%) [7]: 4.1%
NAL Depletion (%) without light irradiation [7]: 0.0%
NAL Depletion (%) under light irradiation [7]: 4.1%
Difference in depletion (under light irradiation - without light irradiation) NAC (%) [3]: 98.8%
NAC Depletion (%) ([3]; without light irradiation): 1.0%
Difference in depletion (under light irradiation - without light irradiation) NAL (%) [4]: 0.7%
NAL Depletion (%) ([4]; without light irradiation): 0.0%

COc1ccc2ccc(=O)oc2c1 [compound 30, 7-Methoxycoumarin]
In vivo photoallergy ([1]; reported in References 1 and 2): Positive

CNc1ccccc1C(=O)OC [compound 32, Methyl-N-methylanthranilate]
In vivo phototoxicity ([2]; reported in References 1 to 3): Positive
In vivo photoallergy ([1]; reported in References 1 and 2): Negative

c1ccc2nc3ccccc3cc2c1 [compound 34, Acridine]
In vivo phototoxicity ([2]; reported in References 1 to 3): Positive
In vivo photoallergy ([1]; reported in References 1 and 2): Negative

c1ccc2cc3ccccc3cc2c1 [compound 35, Anthracene]
In vivo phototoxicity ([2]; reported in References 1 to 3): Positive
In vivo photoallergy ([1]; reported in References 1 and 2): Negative

CN(C)C1C(O)=C(C(N)=O)C(=O)C2(O)C(O)=C3C(=O)c4c(O)cccc4C(C)(O)C3CC12 (stereo not shown) [compound 36]
In vivo photoallergy ([1]; reported in References 1 and 2): Negative
NAC Depletion (%) without light irradiation [6]: −59.4%
NAC Depletion (%) under light irradiation [6]: 44.6%
Difference in depletion (under light irradiation - without light irradiation) NAL (%) [7]: 22.5%
NAL Depletion (%) without light irradiation [7]: 5.1%
NAL Depletion (%) under light irradiation [7]: 27.6%
Difference in depletion (under light irradiation - without light irradiation) NAC (%) [3]: 43.4%
NAC Depletion (%) ([3]; without light irradiation): 56.6%
Difference in depletion (under light irradiation - without light irradiation) NAL (%) [4]: 25.6%
NAL Depletion (%) ([4]; without light irradiation): 3.0%

COC(=O)c1ccccc1O [compound 43, Methyl salicylate]
In vivo phototoxicity ([2]; reported in References 1 to 3): Negative
In vivo photoallergy ([1]; reported in References 1 and 2): Negative

CCCCCCCCCCCCCC(=O)OC(C)C [compound 52, Isopropyl myristate]
In vivo phototoxicity ([2]; reported in References 1 to 3): Negative
In vivo photoallergy ([1]; reported in References 1 and 2): Negative

CCCCCCCCCCCC(=O)O [compound 53, Lauric acid]
In vivo phototoxicity ([2]; reported in References 1 to 3): Negative
In vivo photoallergy ([1]; reported in References 1 and 2): Negative

CCCCCCCCCCCC(=O)[O-].[Na+] [compound 55, Sodium laurate]
In vivo phototoxicity ([2]; in vivo): Negative
In vivo photoallergy ([1]; reported in References 1 and 2): Negative

CCCCCCCCCCCCOS(=O)(=O)[O-].[Na+] [compound 56, Sodium lauryl sulfate]
In vivo phototoxicity ([2]; in vivo): Negative
